These results are taken from ChEMBL document CHEMBL1140009, “Synthesis, determination of stereochemistry, and evaluation of new bisindole alkaloids from the myxomycete Arcyria ferruginea: an approach for Wnt signal inhibitor” (Bioorg Med Chem Lett, 2007).

The test system of the test is Cancer cell lines. In words: Inhibition of Wnt signal in cancer cells by luciferase reporter gene assay. It is filed as cell-based. To be noted: Homo sapiens.

As for `O=C1NC(=O)c2c1c1c3ccc(O)cc3[nH]c1c1[nH]c3cc(O)ccc3c21`, the Activity result was “Dose-dependent effect”. In the case of `O=C1NC(=O)[C@@H](c2c[nH]c3cc(O)ccc23)[C@H]1c1c[nH]c2cc(O)ccc12`, the Activity result was “Dose-dependent effect”.
